Test system: Escherichia coli (E. coli—ATCC #10536)
Test: Automated assessment of efficacy in model surfactant base (2.85% sodium cocoyl glycinate + 1.85% sodium lauroamphoacetate, pH 10), 15 seconds exposure, delta OD450/OD590 in D/E quench
Type: cell-based
Description: Solutions were prepared such that the concentrations of the surfactant components and test actives were 1.1× the final desired concentration in order to allow for dilution with the bacterial inoculum in the test. The solutions were manually adjusted to pH 10.0 by dropwise addition of sodium hydroxide solution, as measured with a pH meter at ambient temperature.
Tests were conducted using standard microtiter plate assays using an automated liquid handling system. 270 μl of the surfactant test solution was pipetted into each well of the microtitre plate and 30 μl of the bacterial suspension was then added. After exactly 15 seconds of bacterial exposure, a 30 μl volume of bacterial cells was withdrawn and transferred to 270 μl of D/E quench solution. After 5 minutes in the D/E quench, the optical density (OD) was measured for each plate in turn at two specific wavelengths (450 nm and 590 nm). These provide a dual check of antimicrobial activity, as the OD450 reading is specific for the yellow colour of D/E quench when bacterial growth is observed, whereas OD590 is specific for the initial purple colour of the D/E quench which is retained if no bacterial growth is observed. After the time zero OD measurements, plates were then incubated at 37° C. overnight (16 hours) before repeating the OD measurements. Delta OD values were calculated by subtracting […]. Bacterial growth is observed as an increase in OD450 and a decrease in ΔOD590. To identify antibacterially efficacious systems (those preventing appreciable bacterial growth after incubation), the following threshold changes in OD readings have been adopted: if (1). OD450 increases by less than 0.2 absorbance unit on incubation and (2). OD590 decreases by less than 0.35 unit on incubation. Conversely, where OD450 increases by more than 0.2 AU and OD590 decreases by more than 0.35 unit after incubation, corresponding to a colour shift from purple to yellow, the test system allows bacterial growth and is not deemed efficacious. Four replicate measurements in the same plate have been made for each test system. The number of replicate wells showing either bacterial growth or no growth is also readily assessed by eye by following the colour change.
Dose responses for individual components and binary mixtures of actives at a fixed concentration ratio were generated by sequential dilution of liquors with further surfactant solution to obtain a series of endpoints.
In some selected cases, the combinations were also tested at the weight ratio 1:1.
The method used was the same as in the above Table.

What does the source list for `C=C(C)C1CCC(C)C(O)C1` (stereo not shown) [2-methyl-5-(prop-1-en-2-yl)cyclohexanol]?
MBC (Escherichia coli, ATCC10536, 15 s, in 2.85% sodium cocoyl glycinate + 1.85% sodium lauroamphoacetate solution at pH 10, E. coli, read-out: MBC): 4000 µg/mL; No. of replicates showing growth (out of 4) (single active at 0.3% w/v): 4; Δ OD 590 nm = OD590 (time = 16 hours) − OD590 (time zero), Mean (single active at 0.3% w/v): 0.66; ΔOD 450 nm = OD450 (time = 16 hours) − OD450 (time zero), Mean (single active at 0.3% w/v): −0.44; No. of replicates showing growth (out of 4) (single active at 0.5% w/v): 0; Δ OD 590 nm = OD590 (time = 16 hours) − OD590 (time zero), Mean (single active at 0.5% w/v): 0.20; ΔOD 450 nm = OD450 (time = 16 hours) − OD450 (time zero), Mean (single active at 0.5% w/v): 0.23; No. of replicates showing growth (out of 4) (single active at […] w/v): 4; Δ OD 590 nm = OD590 (time = 16 hours) − OD590 (time zero), Mean (single active at […] w/v): 0.63; ΔOD 450 nm = OD450 (time = 16 hours) − OD450 (time zero), Mean (single active at […] w/v): −0.50

From patent publication US9820483B2, “Microbial composition” (Rohm and Haas Company, priority 2011, dated 2017)
